According to patent EP4609864A1, “PHARMACEUTICAL COMPOSITION CONTAINING ISOQUINOLINONE COMPOUND, AND PREPARATION METHOD THEREFOR” (Jiangsu Hengrui Pharmaceuticals Co., Ltd., priority 2022, dated 2024):

How the values were obtained:
[1] = phase II; patients with chronic obstructive pulmonary disease; cited from earlier work
immune cells in BALF = assay: Mouse model of LPS-induced acute pulmonary inflammation: immune cell counts in BALF; assay type: in vivo, BALB/c mouse; settings: 1.0 mg/kg intratracheal nebulized, 1 h before LPS; BALF 6 h after modeling; vs. model group
Method: (§1) The study utilized a BALB/c mouse model of LPS-induced acute pulmonary inflammation to evaluate the inhibitory effect of the compound on pulmonary inflammation based on immune cell counts and TNFα cytokine levels in bronchoalveolar lavage fluid (BALF). The mice were divided into 6 groups, with 8 mice per group, including: a normal control group, a model control group, an RPL554 group (1.0 mg/kg), and low, medium, and high dose groups of compound A (0.3 mg/kg, 1.0 mg/kg, and 3.0 mg/kg). One hour after intratracheal administration of nebulized drugs, the mice were stimulated by nebulized LPS for modeling. Six hours after modeling, BALF was collected from the animals, and the total cells, the neutrophils, and the eosinophils in BALF were counted, along with the measurement of the pro-inflammatory cytokine TNFα level in BALF.

TNFα = assay: Mouse model of LPS-induced acute pulmonary inflammation: TNFα level in BALF; assay type: in vivo, BALB/c mouse; settings: 1.0 mg/kg intratracheal nebulized, 1 h before LPS; BALF 6 h after modeling; vs. model group
Method: as §1

## COc1cc2c(cc1OC)-c1c/c(=N\c3c(C)cc(C)cc3C)n(CCNC(N)=O)c(=O)n1CC2 [RPL554, 9,10-dimethoxy-2-(2,4,6-trimethylphenylimino)-3-(N-carbamoyl-2-aminoethyl)-3,4,6,7-tetrahydro-2H-pyrimido[6,1-α]isoquinolin-4-one]
[1]
  bronchodilation and symptoms: significantly improve bronchodilation and symptoms
  tolerability, adverse events: well tolerated
Immune cells in BALF
  number of eosinophils in BALF: significantly lower
  number of neutrophils in BALF: significantly lower
  number of total cells in BALF: significantly lower
TNFα
  TNFα level in BALF: downward trend
